Test results reported in US9452177B2, “Vitamin D compounds and methods for reducing ocular hypertension (OHT)” (Wisconsin Alumni Research Foundation, priority 2008, dated 2016).
Entries after “also recorded” stand apart in the source; their conditions may differ.

Tests used:
[1] = test system: eyes of cynomolgus monkeys; test: Aqueous humor formation rate by ocular scanning fluorophotometry; type: in vivo; details: for AHF Rx/Baseline, Vitamin D eye / AHF Rx/Baseline, Vitamin D/Vehicle / AHF ratio Vitamin D/Vehicle after treatment / Aqueous humor formation (AHF), Vitamin D eye after treatment: 5 μg
Experimental: (§1) Ocular normotensive adult cynomolgus monkeys, of either sex, weighing 3-7 kg were anesthetized with i.m. ketamine HCl (3-25 mg/kg, supplemented with 1-10 mg/kg) for IOP, topical drop administration and aqueous humor flow measurements. All monkeys were free of any ocular abnormalities according to slit lamp biomicroscopy at the time measurements were taken. For outflow facility measurements, animals were given intravenous sodium pentobarbital (15 mg/kg, supplemented with 5-10 mg/kg) following i.m. ketamine induction.
Aqueous humor formation rate was determined by ocular scanning fluorophotometry (Fluorotron Master, OcuMetrics Inc, Mountain View, Calif.) as previously described [Rasmussen, 2007]. Fluorescein drops were administered at least 30 minutes after the fourth treatment (see above) with vitamin D or vehicle. On day 3, prior to the fifth treatment, IOP and biomicroscopy were done. Following the fifth treatment scans were taken hourly, beginning 1 hour after treatment, until 6 duplicates scans were collected. Baseline scans were collected for 6 hours within 2 weeks before and at least 2 weeks after the treatment study. Post treatment aqueous humor formation rates were compared to the average of the pre and post baseline scans and to the vehicle treated eyes by the paired t-test for ratios different from 1.0. There were 8 monkeys for each treatment group.
Aqueous humor formation was measured by fluorophotometry during the interval 1-6 hr after the 5th topical bid treatment with vitamin D or vehicle to opposite eyes (see Materials and Methods). Units for aqueous humor formation are μl/min. Data are Mean±Sem. Rx, treatment (Vitamin D or vehicle) n=6.

monkey eyes = test: Outflow facility by two-level constant pressure perfusion of the anterior chamber; type: in vivo, cynomolgus monkeys; details: for increase in outflow facilities, vitamin D treated eyes: combined n=8
Experimental: as §1
Outflow facility was determined in pentobarbital-anesthetized monkeys [Gabelt, 2004] by two-level constant pressure perfusion of the anterior chamber with Bárány's perfusand [Bárány, 1964] (n=8). Four monkeys (group A) received the single bolus injection of 1 μl of 1 μg vitamin D 1,25-dihydroxyvitamin D3 (1,25-(OH)2D3) into the anterior chamber of one eye (Treated eye) or 1 μl of propylene glycol into the anterior chamber of fellow eye (Control eye). Four monkeys (group B) were treated topically with 5 μg of vitamin D in 5 μl of propylene glycol or vehicle (5 μl of propylene glycol) twice daily for two days.
Following baseline outflow facility measurements on the third day, the fifth treatment was administered as a single bolus injection of 1 μl of 1 μg vitamin D 1,25-dihydroxyvitamin D3 (1,25-(OH)2D3) into the anterior chamber of one eye (Treated eye) or 1 μl of propylene glycol into the anterior chamber of fellow eye (Control eye). Following injections, the treatment bolus was allowed to wash in for 5 min with flow from the reservoirs. Then the contents of the anterior chamber were mixed by blowing cold air on the cornea to create convection. Reservoirs were closed for 75 minutes, then reopened and outflow facility measured for 60-90 minutes. Data were averaged for the entire 60-90 minute period and for 30-minute intervals and then were compared to baseline and to the vehicle treated eyes. Ratios were compared by the two-tailed paired t-test for ratios different from 1.0.
Baseline outflow facilities were studied in two groups (A and B) of monkeys (Materials and Methods). Group A (n=4) was treated with single bolus intracameral injection of 1 μg vitamin D (1,25-(OH)2D3) in 1 μl propylene glycol in one eye and 1 μl vehicle, propylene glycol in the control eye (Table 2, A). Group B (n=4) was treated topically with 5 μg of vitamin D in 5 μl of propylene glycol or vehicle (5 μl of propylene glycol) twice daily for two days. Then, following baseline outflow facility measurements on the third day, the fifth treatment was administered as a single bolus injection of 1 μl of 1 μg vitamin D 1,25-dihydroxyvitamin D3 (1,25-(OH)2D3) into the anterior chamber of one eye (Treated eye) or 1 μl of propylene glycol into the anterior chamber of fellow eye (Control eye).

[2] = Hours 1-3 after 5th topical bid treatment
[3] = Hours 1-6 after 5th topical bid treatment
[4] = Hours 4-6 after 5th topical bid treatment
[5] = Combined data for Groups A and B, n=8
[6] = Group A, 1 μg intracameral, n=4
[7] = Group B, 5 μg topical (4 treatments) then 1 μg intracameral, n=4

## C=C1/C(=C\C=C2/CCC[C@]3(C)[C@@H]([C@H](C)CCCC(C)(C)O)CC[C@@H]23)C[C@@H](O)C[C@@H]1O [1,25-(OH)2D3, 1α,25-dihydroxyvitamin D3]
[1]; 5 μg topical, compared to baseline or vehicle eye
  change in aqueous humor formation rate: no changes in the aqueous humor formation rates; also recorded: does not change the aqueous humor formation
[1]; [2]
  AHF Rx/Baseline, Vitamin D eye: 1.06 ± 0.10
  AHF Rx/Baseline, Vitamin D/Vehicle: 1.07 ± 0.06
  AHF ratio Vitamin D/Vehicle after treatment: 0.94 ± 0.05
  Aqueous humor formation (AHF), Vitamin D eye after treatment: 1.27 ± 0.08 µL/min
[1]; [3]
  AHF Rx/Baseline, Vitamin D eye: 1.14 ± 0.06
  AHF Rx/Baseline, Vitamin D/Vehicle: 1.10 ± 0.07
  AHF ratio Vitamin D/Vehicle after treatment: 1.01 ± 0.07
  Aqueous humor formation (AHF), Vitamin D eye after treatment: 1.53 ± 0.10 µL/min
[1]; [4]
  AHF Rx/Baseline, Vitamin D eye: 1.25 ± 0.09
  AHF Rx/Baseline, Vitamin D/Vehicle: 1.22 ± 0.16
  AHF ratio Vitamin D/Vehicle after treatment: 0.98 ± 0.10
  Aqueous humor formation (AHF), Vitamin D eye after treatment: 1.54 ± 0.14 µL/min
Monkey eyes; [5]
  Cumulative 90 min outflow facility, Treated eye after Vitamin D: 0.44 ± 0.13 μl/min/mmHg
  Outflow facility Vitamin D/Baseline, Treated/Control: 0.94 ± 0.11
  Outflow facility ratio Treated/Control after Vitamin D: 0.87 ± 0.16
Monkey eyes; Combined data for Groups A and B, n=8, *p<0.05 vs 1.0
  Outflow facility Vitamin D/Baseline, Treated eye: 1.59 ± 0.19*
Monkey eyes; [6]
  Cumulative 90 min outflow facility, Treated eye after Vitamin D: 0.37 ± 0.07 μl/min/mmHg
  Outflow facility Vitamin D/Baseline, Treated eye: 1.80 ± 0.30
  Outflow facility Vitamin D/Baseline, Treated/Control: 1.04 ± 0.13
  Outflow facility ratio Treated/Control after Vitamin D: 0.82 ± 0.20
Monkey eyes; [7]
  Cumulative 90 min outflow facility, Treated eye after Vitamin D: 0.51 ± 0.26 μl/min/mmHg
  Outflow facility Vitamin D/Baseline, Treated eye: 1.39 ± 0.45
  Outflow facility Vitamin D/Baseline, Treated/Control: 0.84 ± 0.18
  Outflow facility ratio Treated/Control after Vitamin D: 0.91 ± 0.27
Monkey eyes; at 60 min, significant
  increase in outflow facilities, vitamin D treated eyes: 60%
Monkey eyes; at 90 min, significant
  increase in outflow facilities, vitamin D treated eyes: 115%
Monkey eyes; at 90 min after the intracameral injections
  increase in outflow facilities over baseline, both eyes: about 100%
Monkey eyes; cumulative 90 min, groups A and B and combined
  outflow facility, vitamin D versus vehicle treated eyes: no significant differences were found neither between the vitamin D or vehicle treated eyes; also recorded: did not change either the aqueous humor flow or the outflow facilities
Monkey eyes; first 30 min after the bolus injection, non-significant
  increase in outflow facilities, vitamin D treated eyes: 10%
